The term Ki denotes a measure of affinity in units of concentration, obtained from inhibition or displacement. Low readings indicate tighter binding, high ones weaker binding.

The record followed here is patent US9206164B2, “Pyrazole compounds as CRTH2 antagonists” (Boehringer Ingelheim International GmbH, priority 2011, dated 2015).

Molecules are shown by their SMILES.

Sequence of human CRTH2 receptor (Q9Y5Y4 whole entry): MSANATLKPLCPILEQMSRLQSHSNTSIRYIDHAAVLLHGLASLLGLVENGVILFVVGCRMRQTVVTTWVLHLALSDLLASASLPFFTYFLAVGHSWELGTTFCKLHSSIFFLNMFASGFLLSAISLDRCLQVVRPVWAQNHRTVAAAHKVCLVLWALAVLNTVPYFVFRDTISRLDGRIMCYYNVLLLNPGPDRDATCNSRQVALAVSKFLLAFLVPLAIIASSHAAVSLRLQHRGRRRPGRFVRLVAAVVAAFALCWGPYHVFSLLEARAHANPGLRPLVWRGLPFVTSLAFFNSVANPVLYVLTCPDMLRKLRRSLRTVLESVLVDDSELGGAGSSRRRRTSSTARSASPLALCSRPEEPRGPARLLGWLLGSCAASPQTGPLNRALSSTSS

This assay addresses human CRTH2 receptor (Homo sapiens (Human), UniProt Q9Y5Y4). Kind of assay: CRTH2 receptor radioligand binding assay (SPA, [3H]-PGD2 displacement). Conditions: antagonistic activities of selected compounds. On the procedure:
The binding of CRTH2 antagonists is determined using membranes prepared from Chinese hamster ovary cells (CHO-K1 cells) transfected with the human CRTH2 receptor (CHO-K1-hCRTH2 cells, Perkin Elmer, Cat No ES-561-C). To produce cell membranes the CHO-K1-hCRTH2 cells are cultured in suspension in CHO SFMII medium supplemented with 400 μg/ml G418. The cells are harvested by centrifugation at 300 g for 10 min at room temperature. The cell pellet is resuspended in Phosphate Buffer Saline (PBS) including a protease inhibitor mix (Complete, Roche) and adjusted to a concentration of 10E7 cells/ml. The CHO-K1-hCRTH2 cells are disrupted by nitrogen […] to obtain the membrane preparation. Cell debris is removed by centrifugation (500 g at 4° C., 30 min) and the supernatant is transferred into fresh tubes followed by a second centrifugation at 40000 g for 1 h at 4° C. to sediment the membranes. The membranes are suspended in SPA incubation buffer (50 mM Tris HCl, 10 mM MgCl2, 150 mM NaCl, 1 mM EDTA, pH 7.4) without bovine serum albumin, homogenized by passing through a single use needle (Terumo, 23G×1″), and stored in aliquots at −80° C.
The CRTH2 receptor binding assay is performed in a scintillation proximity assay (SPA) format with the radioligand [^3H]-PGD2 (Perkin Elmer, NET616000MC). CHO-K1-hCRTH2 cell membranes are again homogenized by passing through a single use needle (Terumo, 23G×1″) and diluted in SPA incubation buffer in suitable concentrations (0.5-10 μg protein/well). The SPA assay is set up in 96 well microtiter plates (Perkin Elmer, CatNo. 6005040) in SPA incubation buffer with a final volume of 200 μl per well and final concentration of 50 mM Tris-HCl, 10 mM MgCl2, 150 mM NaCl, 1 mM EDTA pH 7.4, 0.1% bovine serum albumin). The SPA assay mixture contains 60 μl of the membrane suspension, 80 μl of Wheat Germ Agglutinin coated PVT beads (GE Healthcare, RPNQ-0001, 0.3 mg/well), 40 μl of [^3H]-PGD2 diluted in SPA buffer to a final concentration of 1 nM (50 000 dpm) and 20 μl of the test compound (dissolved in dimethylsulfoxid). The SPA assay mixture is incubated for 3 h at room temperature. Bound radioactivity is determined with a scintillation counter (Micro Beta Trilux, Wallac).
The binding of [^3H]-PGD2 to CHO-K1-hCRTH2 cell membranes is determined in the absence (total binding, Bo) and presence (non-specific binding, NSB) of unlabelled PGD2 (1 μM, Cayman Chemical, Cat No 12010) or a reference CRTH2 antagonist (10 μM CAY10471, Cayman Chemical, Cat No 10006735).
Determination of the affinity of a test compound is calculated by subtraction of the non-specific binding (NSB) from the total binding (Bo) or the binding in the presence of the test compound (B) at a given compound concentration. The NSB value is set to 100% inhibition. The Bo−NSB value is set to 0% inhibition.
% inhibition values were obtained at a defined compound concentration, e.g. at 1 μM, % inhibition of the test compound was calculated by the formula 100−((B−NSB)*100/(Bo−NSB)). % inhibition values above 100% are founded by assay variance.
Compound `CCc1nn(Cc2ccc(-c3nc4c(Cl)cc(Cl)cc4[nH]3)cc2F)c(CC)c1CC(=O)O` [Compound 104] returned an inhibition constant Ki of 0.7 nM. That is a sub-nanomolar value.
To `CCc1nn(Cc2ccc(-c3nc4c(C)cccc4[nH]3)cc2)c(CC)c1CC(=O)O` [Compound 51] belongs 2.2 nM; to `Cc1nn(Cc2ccc(-c3nc4cccnc4[nH]3)cc2)c(C)c1CC(=O)O` [Compound 31], 118 nM.
In the case of `CCc1nn(Cc2ccc(-c3nc4c(F)cccc4[nH]3)cc2F)c(CC)c1CC(=O)O` [Compound 74] it was 1.2 nM.
In the case of `Cc1nn(Cc2ccc(-c3nc4cc(Cl)ccc4[nH]3)cc2F)c(C)c1CC(=O)O` [Compound 108] it was 2.3 nM.
Turning to `Cc1nn(Cc2ccc(-c3cc4cccnc4[nH]3)cc2F)c(C)c1CC(=O)O` [Compound 12], the affinity corresponds to a Ki of 155 nM. Against the preceding compound, the Ki is about 67-fold higher.
To `CCc1nn(Cc2ccc(-c3nc4cc(Cl)c(Cl)cc4[nH]3)cc2)c(CC)c1CC(=O)O` [Compound 16] belongs 0.2 nM.
In the case of `Cc1nn(Cc2ccc(-c3cc4ccc(C(F)(F)F)cc4[nH]3)cc2F)c(C)c1CC(=O)O` [Compound 5] it was 0.5 nM; in that of `Cc1nn(Cc2ccc(-c3nc4c(F)cc(F)cc4[nH]3)cc2)c(C)c1CC(=O)O` [Compound 36], 5.6 nM.
In the case of `Cc1cc2nc(-c3ccc(Cn4nc(C)c(CC(=O)O)c4C)cc3)[nH]c2cc1Cl` [Compound 54] it was 1.1 nM; in that of `CCc1nn(Cc2ccc(-c3nc4c(F)cc(F)cc4[nH]3)cc2F)c(CC)c1CC(=O)O` [Compound 101], 1.1 nM.
As for `Cc1nn(Cc2ccc(-c3nc4c(C)cccc4[nH]3)cc2)c(C)c1CC(=O)O` [Compound 63], the Ki was found to be 10 nM.
To `COc1ccc2[nH]c(-c3ccc(Cn4nc(C)c(CC(=O)O)c4C)cc3)nc2n1` [Compound 44] belongs 9.6 nM.
To `CCc1nn(Cc2ccc(-c3nc4cc(Cl)c(Cl)cc4n3C)cc2)c(CC)c1CC(=O)O` [Compound 35] belongs 66.7 nM; to `Cc1nn(Cc2ccc(-c3nc4cc(Cl)ccc4n3C)cc2)c(C)c1CC(=O)O` [Compound 25], 176 nM.
As to `Cc1nn(Cc2ccc(-c3nc4cc(F)ccc4[nH]3)cc2F)c(C)c1CC(=O)O` [Compound 86], the Ki was determined as 6.5 nM.
To `Cc1nn(Cc2ccc(-c3cc4ncccc4[nH]3)cc2)c(C)c1CC(=O)O` [Compound 10] belongs 308 nM.
To `Cc1nn(Cc2ccc(-c3nc4cc5ccccc5cc4[nH]3)cc2)c(C)c1CC(=O)O` [Compound 18] belongs 0.8 nM.
In the case of `Cc1nn(Cc2ccc(-c3nc4c(Cl)cc(Cl)cc4[nH]3)cc2)c(C)c1CC(=O)O` [Compound 66] it was 1 nM.
Take `Cc1nn(Cc2ccc(-c3nc4cc(C#N)ccc4[nH]3)cc2F)c(C)c1CC(=O)O` [Compound 78]: the inhibition constant Ki was determined as 21.7 nM. This Ki lies about 22-fold higher than the previous one.
To `Cc1nn(Cc2ccc(-c3cc4cc(C(F)(F)F)ccc4[nH]3)cc2)c(C)c1CC(=O)O` [Compound 2] belongs 11.3 nM; to `Cc1nn(Cc2ccc(-c3nc4cc(Br)ccc4[nH]3)cc2)c(C)c1CC(=O)O` [Compound 32], 1.2 nM.
In the case of `CCc1nn(Cc2ccc(-c3nc4cc(C(C)(C)C)ccc4[nH]3)cc2F)c(CC)c1CC(=O)O` [Compound 98] it was 0.1 nM; in that of `Cc1nn(Cc2ccc(-c3cc4ccc(C(F)(F)F)cc4[nH]3)cc2)c(C)c1CC(=O)O` [Compound 4], 0.3 nM; in that of `CCc1nn(Cc2ccc(-c3nc4ccccc4[nH]3)cc2)c(CC)c1CC(=O)O` [Compound 15], 2.3 nM.
To `Cc1nn(Cc2ccc(-c3nc4cc(Cl)cnc4[nH]3)cc2F)c(C)c1CC(=O)O` [Compound 100] belongs 18.5 nM.
For `CCc1nn(Cc2ccc(-c3nc4cc(C)c(Cl)cc4[nH]3)cc2F)c(CC)c1CC(=O)O` [Compound 106], affinity was put at a Ki of 0.3 nM.
In the case of `CCc1nn(Cc2ccc(-c3nc4cc(F)ccc4[nH]3)cc2F)c(CC)c1CC(=O)O` [Compound 82] it was 1 nM; in that of `CCc1nn(Cc2ccc(-c3nc4ccncc4[nH]3)cc2F)c(CC)c1CC(=O)O` [Compound 90], 60.9 nM.
In the case of `CCc1nn(Cc2ccc(-c3nc4c(F)c(F)ccc4[nH]3)cc2F)c(CC)c1CC(=O)O` [Compound 84] it was 0.8 nM; in that of `Cc1nn(Cc2ccc(-c3cc4ccc(C(F)(F)F)cc4[nH]3)cc2C(F)(F)F)c(C)c1CC(=O)O` [Compound 11], 0.7 nM.
In the case of `Cc1ccc2[nH]c(-c3ccc(Cn4nc(C)c(CC(=O)O)c4C)cc3)nc2c1` [Compound 41] it was 4.8 nM; in that of `Cc1nn(Cc2ccc(-c3nc4cc(Cl)cnc4[nH]3)cc2)c(C)c1CC(=O)O` [Compound 40], 12.4 nM; in that of `Cc1nn(Cc2ccc(-c3nc4cc(C#N)ccc4[nH]3)cc2)c(C)c1CC(=O)O` [Compound 62], 18.4 nM.
On to `CCc1nn(Cc2ccc(-c3nc4cc(Br)ccc4[nH]3)cc2F)c(CC)c1CC(=O)O` [Compound 87], for which the Ki is 0.4 nM.
Consider `CCc1nn(Cc2ccc(-c3nc4cc(OC)ccc4[nH]3)cc2F)c(CC)c1CC(=O)O` [Compound 75], for which the Ki is 1 nM.
In the case of `Cc1nn(Cc2ccc(-c3nc4ccc(C(F)(F)F)cc4[nH]3)cc2)c(C)c1CC(=O)O` [Compound 21] it was 1.4 nM; in that of `CCc1nn(Cc2ccc(-c3nc4cc5ccccc5cc4[nH]3)cc2)c(CC)c1CC(=O)O` [Compound 19], 0.1 nM.
To `CCc1nn(Cc2ccc(-c3nc4cc(Br)cnc4[nH]3)cc2F)c(CC)c1CC(=O)O` [Compound 89] belongs 2.6 nM; to `Cc1nn(Cc2ccc(-c3nc4c(F)cccc4[nH]3)cc2)c(C)c1CC(=O)O` [Compound 52], 8.7 nM.
To `Cc1nn(Cc2ccc(-c3nc4cc(Br)cnc4[nH]3)cc2)c(C)c1CC(=O)O` [Compound 38] belongs 7.4 nM; to `CCc1nn(Cc2ccc(-c3nc4cc(Cl)ccc4[nH]3)cc2F)c(CC)c1CC(=O)O` [Compound 80], 0.5 nM.
For the compound `Cc1nn(Cc2ccc(-c3cc4cc(Cl)ccc4[nH]3)cc2)c(C)c1CC(=O)O` [Compound 3], the Ki worked out at 4.2 nM.
`CCc1nn(Cc2ccc(-c3nc4cc(Cl)ccc4[nH]3)cc2)c(CC)c1CC(=O)O` [Compound 45] yielded a Ki of 0.3 nM.
`Cc1nn(Cc2ccc(-c3nc4cc(Br)ccc4[nH]3)cc2F)c(C)c1CC(=O)O` [Compound 94]: the Ki amounted to 1.6 nM.
In the case of `Cc1nn(Cc2ccc(-c3cc4ccc(Cl)cc4[nH]3)cc2F)c(C)c1CC(=O)O` [Compound 6] it was 0.8 nM; in that of `CCc1nn(Cc2ccc(-c3nc4cccnc4[nH]3)cc2)c(CC)c1CC(=O)O` [Compound 48], 12.9 nM.
The compound `Cc1nn(Cc2cccc(-c3cc4ccc(Cl)cc4[nH]3)c2)c(C)c1CC(=O)O` [Compound 7] showed a Ki of 397 nM. This Ki lies about 31-fold higher than the previous one.
In the case of `Cc1nn(Cc2ccc(-c3nc4cc(F)c(Cl)cc4[nH]3)cc2F)c(C)c1CC(=O)O` [Compound 102] it was 2.1 nM; in that of `Cc1nn(Cc2ccc(-c3nc4cccnc4[nH]3)cc2F)c(C)c1CC(=O)O` [Compound 107], 87.4 nM.
In the case of `Cc1nn(Cc2ccc(-c3nc4c(F)cc(F)cc4[nH]3)cc2F)c(C)c1CC(=O)O` [Compound 77] it was 5.5 nM.
In the case of `Cc1nn(Cc2ccc(-c3nc4ccncc4[nH]3)cc2)c(C)c1CC(=O)O` [Compound 60] it was 299 nM; in that of `Cc1nn(Cc2ccc(-c3nc4c(F)c(F)ccc4[nH]3)cc2F)c(C)c1CC(=O)O` [Compound 105], 5.1 nM; in that of `CCc1nn(Cc2ccc(-c3nc4cc(C#N)ccc4[nH]3)cc2)c(CC)c1CC(=O)O` [Compound 34], 3.7 nM.
`Cc1nn(Cc2ccc(-c3nc4c(C)cccc4[nH]3)cc2F)c(C)c1CC(=O)O` [Compound 93]: the Ki stood at 12.8 nM.
In turn, `Cc1nn(Cc2ccc(-c3nc4c(F)c(F)ccc4[nH]3)cc2)c(C)c1CC(=O)O` [Compound 47] registered a Ki of 4.9 nM.
